Measurements from patent publication US10441565B2, “Conjugate of memantine and arctigenin, and composition and use thereof” (Shenzhen Qingyaqirui Bio-Tech Co., Ltd., priority 2015, dated 2019).
Counter-ions that a name gives are not always drawn.

What was measured:
[1] = tested on: APP/PS1 transgenic AD model mice; assay: Morris water maze test, memory impairment of APP/PS1 transgenic AD model mice; format: in vivo; conditions: 50 mg/kg/day by gastric gavage for 60 days, versus solvent-treated transgenic mice, FIG. 3
Experimental: In the present invention, conjugate A04 was administered by gastric gavage to APP/PS1 transgenic AD model mice, and then the effect of conjugate A04 on the memory impairment of transgenic AD model mice was detected through the classic Morris water maze test.
In this experiment, APP/PS1 double transgenic AD model mice, which developed Aβ deposition when they were about 6 months old, and had impairment on the space memory when they were about 7 months old, were employed. Therefore, in this experiment, the impairment on the space memory of the mice was further detected via the water maze test, and at the same time, whether conjugate A04 has a therapeutic or improving effect on the memory impairment was evaluated.
1) Identification of APP/PS1 double transgenic AD model mice: the mice's tail was snipped off, then the gene sequence of APP/PS1 in mice was identified by PCR. The wild type C57 (B6C3) mice were used as the negative control mice. […]
3) Morris water maze test: a mixture of water and fresh milk at a temperature of 19-20° C. was injected into a white round pool with a diameter of 120 centimeters daily in the test. […] The motion track and speed of the mice were automatically recorded by Anymaze and the matched camera. The average time of searching the platform in the four tests per day was recorded as the time for searching the platform on that day (latent period). […]

[2] = tested on: drosophila Alzheimer's disease model wherein humanized A342 was overexpressed; assay: Pavlovian olfactory memory test, rescue of memory impairment in drosophila AD model; format: in vivo
Description: A drosophila Alzheimer's disease model wherein humanized A342 was overexpressed (the model drosophila has significant learning and memory defects), was employed in the present invention to evaluate the effect of conjugate A04 in rescuing the learning and memory ability of the model drosophila.
Pavlovian olfactory memory platform was improved from the literatures (see Tully, T. et al., Classical conditioning and retention in normal and mutant Drosophila melanogaster. (1985) J. Comp. Physiol. A 157: 263-277; Tully, T. et al., Genetic dissection of consolidated memory in Drosophila. (1994) Cell 79: 35-47; Yin, J. C. et al., Induction of a dominant negative CREB transgene specifically blocks long-term memory in Drosophila. (1994) Cell 79: 49-58). The learning and memory test was performed in a behavior room having a constant temperature and humidity (25° C. and 70% relative humidity). The test comprises two stages:
training stage: about a hundred drosophilas were placed into a training tube covered with copper net inside, and the drosophilas sequentially smelt two odors (octanol (OCT) and methylcyclohexanol (MCH)). Each odor lasted for 1 minute, and after each of the odors, 45 seconds of fresh air were passed through. The drosophilas were subjected to 1 minute of electric shock only when it smelt the first odor. Such a set of procedures constituted a training cycle. In order to avoid the natural preference of the drosophilas for odors, one tube of the drosophilas smelt OCT first and then received an electric shock at each data point, while the other tube of the drosophilas smelt MCH first and then received an electric shock, and the mean value of the test results of the 2 tubes of drosophilas was a data point.
test stage: the drosophilas were immediately transferred to the selection point of a T-maze after the training, and then they were made to choose between the containers of the two odors within two minutes. After 2 minutes, the numbers of drosophilas in different containers were respectively counted, and the performance index (PI) was calculated. […]

[3] = Pharmacokinetics in rats after gastric gavage, ATG concentration in plasma by LC-MS; format: in vivo, SD rats
Experimental: This test investigated the pharmacokinetics of arctigenin (ATG) and conjugate A04 in rats. The rats were administered by gastric gavage with ATG and A04, the whole blood sample was collected at various time points, the plasma was separated, and the concentration of ATG in plasma was determined by LC-MS.
Before the test, the rats were fasted for 12 hours, with free access to water, and were fed 2 hours after administration.
Blood sampling time points: 0.5, 1.0, 2.0, 4.0, 6.0, 8.0 and 12 h after administration by gastric gavage.
0.5 mL venous blood was taken from the posterior venous plexus of the rat's eyeball at the above set time points, put in a heparinized tube, centrifuged for 5 min at 11000 rpm to separate the plasma, and froze in a refrigerator at −20° C.
200 μL acetonitrile was added into 100 μL plasma samples, vortex mixed for 1 min, and centrifuged for 5 min at 11000 rpm; all the supernatant was taken out and put in a 10 mL test tube, dried in an airflow at 40° C., dissolved in 100 μL acetonitrile-water (1:9, v/v), and 10 μL was taken for UPLC/Q-TOF MS analysis.

CC12CC3CC(C)(C1)CC(N)(C3)C2 [memantine hydrochloride]
latent period in the Morris water maze test [1]: no significant change compared with that of the transgenic AD model mice

CC12CC3CC(C)(C1)CC(N)(C3)C2 [Mem, memantine]
performance index (PI) ([2]; AD drosophilas, 100 μM in 4% sucrose, 4 hours per day for 7 days, AD negative control PI 41, genetic control 19 higher): 55 | rescue effect ([2]; AD drosophilas, negative control group 0%, genetic control group 100%): more than 50%

COc1cc(C[C@H]2C(=O)OC[C@@H]2Cc2ccc(OC)c(OC)c2)ccc1O [ATG, arctigenin]
oral bioavailability ([3]; according to further investigations of the present inventors): poor | ATG plasma concentration ([3]; rats, 20 mg/kg ATG by gastric gavage, lower detection limit 1.0 ng/ml): < 1.0 ng/mL

COc1ccc(C[C@H]2COC(=O)[C@@H]2Cc2ccc(OC(=O)NCCNC(=O)[C@@H](N)COC(=O)NC34CC5CC(C)(CC(C)(C5)C3)C4)c(OC)c2)cc1OC [Conjugate A04]
rescue effect on the memory impairment of AD drosophilas compared with Mem ([2]; 100 μM, 7 days, FIG. 2): better rescue effect on the memory impairment of AD drosophilas than Mem | latent period in the Morris water maze test [1]: significantly shorter than that of the transgenic mice treated with the solvent
